Reference: ChEMBL document CHEMBL3046926, “Molecular properties prediction, synthesis, and diuretic activity of phenoxy acetic acid bearing pyrazolines” (2013)

How the values were obtained:
[1] = system: Rattus norvegicus; test: Induction of diuresis activity in Rattus norvegicus albino (rat) assessed as urinary excretion at 20 mg/kg, po measured at 5-18 hr after drug administration by standard Lipschitz method against frusemide-treated control (reference value: 0.2 no unit); assay type: functional, Urine
[2] = system: Rattus norvegicus; test: Induction of diuresis in Rattus norvegicus albino (rat) assessed as total urinary output at 20 mg/kg, po measured at 5-18 hr after drug administration by standard Lipschitz method (reference value: 1.26 +/-0.049 ml); assay type: functional, Urine
[3] = system: Rattus norvegicus; test: Induction of diuresis in Rattus norvegicus albino (rat) assessed as total urinary output at 20 mg/kg, po measured at 0-5 hr after drug administration by standard Lipschitz method (reference value: 2.46 +/-0.125 ml); assay type: functional, Urine
[4] = system: Rattus norvegicus; test: Induction of diuresis in Rattus norvegicus albino (rat) assessed as urinary excretion at 20 mg/kg, po measured at 0-5 hr after drug administration by standard Lipschitz method (reference value: 98.40%); assay type: functional, Urine
[5] = system: Rattus norvegicus; test: Induction of diuresis in Rattus norvegicus albino (rat) assessed as urinary Na+ excretion at 20 mg/kg, po measured at 0-5 hr after drug administration by standard Lipschitz method (reference value: 0.90 +/-0.003 mEq/L); assay type: functional, Urine
[6] = system: Rattus norvegicus; test: Induction of diuresis in Rattus norvegicus albino (rat) assessed as urinary K+ excretion at 20 mg/kg, po measured at 0-5 hr after drug administration by standard Lipschitz method (reference value: 0.46 +/-0.006 mEq/L); assay type: functional, Urine
[7] = system: Rattus norvegicus; test: Induction of diuresis activity in Rattus norvegicus albino (rat) assessed as urinary excretion at 20 mg/kg, po measured at 0-5 hr after drug administration by standard Lipschitz method against frusemide-treated control (reference value: 0.5 no unit); assay type: functional, Urine
[8] = system: Rattus norvegicus; test: Induction of diuresis action in Rattus norvegicus albino (rat) assessed as urinary excretion at 20 mg/kg, po measured at 5-18 hr after drug administration by standard Lipschitz method against untreated control (reference value: 1 no unit); assay type: functional, Urine
[9] = system: Rattus norvegicus; test: Induction of diuresis in Rattus norvegicus albino (rat) assessed as urinary Cl- excretion at 20 mg/kg, po measured at 5-18 hr after drug administration by standard Lipschitz method (reference value: 0.38 +/-0.011 mEq/L); assay type: functional, Urine
[10] = system: Rattus norvegicus; test: Induction of diuresis action in Rattus norvegicus albino (rat) assessed as urinary excretion at 20 mg/kg, po measured at 0-5 hr after drug administration by standard Lipschitz method against untreated control (reference value: 1 no unit); assay type: functional, Urine
[11] = system: Rattus norvegicus; test: Induction of diuresis in Rattus norvegicus albino (rat) assessed as urinary excretion at 20 mg/kg, po measured at 5-18 hr after drug administration by standard Lipschitz method (reference value: 50.4%); assay type: functional, Urine
[12] = system: Rattus norvegicus; test: Induction of diuresis in Rattus norvegicus albino (rat) assessed as urinary K+ excretion at 20 mg/kg, po measured at 5-18 hr after drug administration by standard Lipschitz method (reference value: 0.22 +/-0.004 mEq/L); assay type: functional, Urine
[13] = system: Rattus norvegicus; test: Induction of diuresis in Rattus norvegicus albino (rat) assessed as urinary Na+ excretion at 20 mg/kg, po measured at 5-18 hr after drug administration by standard Lipschitz method (reference value: 0.65+/-0.006 mEq/L); assay type: functional, Urine
[14] = system: Rattus norvegicus; test: Induction of diuresis in Rattus norvegicus albino (rat) assessed as urinary Cl- excretion at 20 mg/kg, po measured at 0-5 hr after drug administration by standard Lipschitz method (reference value: 0.46 +/-0.005 mEq/L); assay type: functional, Urine
[15] = system: Rattus norvegicus; test: Induction of diuresis in Rattus norvegicus albino (rat) assessed as normal saline intake at 20 mg/kg, po measured at 5-18 hr after drug administration by standard Lipschitz method (reference value: 2.50 +/-0.036 ml); assay type: functional
[16] = system: Rattus norvegicus; test: Induction of diuresis in Rattus norvegicus albino (rat) assessed as normal saline intake at 20 mg/kg, po measured at 0-5 hr after drug administration by standard Lipschitz method (reference value: 2.50 +/-0.036 ml); assay type: functional

COc1cc(C2CC(c3ccc(O)cc3O)=NN2C(=O)COc2ccccc2)ccc1OCC(=O)O (stereo unspecified)
Ratio [1]: 1.12
Activity [2]: 7.65 mL
Activity [3]: 4.11 mL
Activity [4]: 150%
Activity [5]: 1.92 mEq/L
Activity [6]: 0.55 mEq/L
Ratio [7]: 0.76
Ratio [8]: 5.58
Activity [9]: 1.69 mEq/L
Ratio [10]: 1.5
Activity [11]: 279.19%
Activity [12]: 2.12 mEq/L
Activity [13]: 3.66 mEq/L
Activity [14]: 0.66 mEq/L
Activity [15]: 2.74 mL
Activity [16]: 2.74 mL

COc1cc(C2CC(c3ccc(Cl)cc3)=NN2C(=O)Cc2ccccc2)ccc1OCC(=O)O (stereo unspecified)
Ratio [1]: 0.88
Activity [2]: 6.23 mL
Activity [3]: 4.45 mL
Activity [4]: 156.69%
Activity [5]: 1.26 mEq/L
Activity [6]: 0.74 mEq/L
Ratio [7]: 0.76
Ratio [8]: 4.38
Activity [9]: 1.96 mEq/L
Ratio [10]: 1.5
Activity [11]: 219.36%
Activity [12]: 1.65 mEq/L
Activity [13]: 2.86 mEq/L
Activity [14]: 0.67 mEq/L
Activity [15]: 2.84 mL
Activity [16]: 2.84 mL

NS(=O)(=O)c1cc(C(=O)O)c(NCc2ccco2)cc1Cl [FUROSEMIDE]
Ratio [1]: 1
Activity [2]: 6.81 mL
Activity [3]: 5.35 mL
Activity [4]: 194.54%
Activity [5]: 2.44 mEq/L
Activity [6]: 1.27 mEq/L
Ratio [7]: 1
Ratio [8]: 4.94
Activity [9]: 1.83 mEq/L
Ratio [10]: 1.97
Activity [11]: 247.63%
Activity [12]: 3.11 mEq/L
Activity [13]: 3.11 mEq/L
Activity [14]: 1.24 mEq/L
Activity [15]: 2.75 mL
Activity [16]: 2.75 mL

COc1ccc(C2=NN(C(=O)COc3ccccc3)C(c3ccc(OCC(=O)O)c(OC)c3)C2)cc1 (stereo unspecified)
Ratio [1]: 0.76
Activity [2]: 5.41 mL
Activity [3]: 5.13 mL
Activity [4]: 180.63%
Activity [5]: 1.92 mEq/L
Activity [6]: 0.54 mEq/L
Ratio [7]: 0.91
Ratio [8]: 3.8
Activity [9]: 1.38 mEq/L
Ratio [10]: 1.8
Activity [11]: 190.49%
Activity [12]: 1.35 mEq/L
Activity [13]: 2.62 mEq/L
Activity [14]: 0.96 mEq/L
Activity [15]: 2.84 mL
Activity [16]: 2.84 mL

COc1cc(C2CC(c3ccc(Cl)cc3)=NN2C(=O)COc2ccccc2)ccc1OCC(=O)O (stereo unspecified)
Ratio [1]: 1.39
Activity [2]: 10.17 mL
Activity [3]: 7.28 mL
Activity [4]: 247.61%
Activity [5]: 3.26 mEq/L
Activity [6]: 1.74 mEq/L
Ratio [7]: 1.26
Ratio [8]: 6.92
Activity [9]: 1.77 mEq/L
Ratio [10]: 2.5
Activity [11]: 345.91%
Activity [12]: 1.96 mEq/L
Activity [13]: 3.82 mEq/L
Activity [14]: 1.66 mEq/L
Activity [15]: 2.94 mL
Activity [16]: 2.94 mL

COc1ccc(C2=NN(C(=O)c3ccc(Cl)cc3)C(c3ccc(OCC(=O)O)c(OC)c3)C2)cc1 (stereo unspecified)
Ratio [1]: 0.03
Activity [2]: 0.23 mL
Activity [3]: 1.21 mL
Activity [4]: 42.45%
Activity [5]: 0.76 mEq/L
Activity [6]: 0.36 mEq/L
Ratio [7]: 0.2
Ratio [8]: 0.16
Activity [9]: 0.06 mEq/L
Ratio [10]: 0.4
Activity [11]: 8.07%
Activity [12]: 0.068 mEq/L
Activity [13]: 0.11 mEq/L
Activity [14]: 0.36 mEq/L
Activity [15]: 2.85 mL
Activity [16]: 2.85 mL
